According to patent US6835382B2, “Ii peptide therapeutics to enhance antigen presentation” (University of Massachusetts, priority 1996, dated 2004):
Non-standard residues stand in square brackets, D forms with d. hArg = N=C(N)NCCCC[C@H](N)C(=O)O; Cit = NC(=O)NCCC[C@H](N)C(=O)O

Key:
[1] = test system: murine E^k MHC class II allele; experiment: antigenic peptide prepulse assay, E^k allele (fixed APC prepulsed with PGCC81-104); type: cell-based; conditions: for Activity in antigenic peptide prepulse assay, E^k (baseline = 1.0): Table 26, prepulse 1.25 μM antigenic peptide
Description: (§1) In a second type of assay, the “peptide prepulse assay”, the antigenic peptide is incubated with paraformaldehyde-fixed APC for 6 h. The APC are washed and incubated for 24 h with the AE101 series homolog and the T cell hybridoma specific for the antigenic peptide. After that incubation, an aliquot of the culture supernatant is transferred to a second culture to measure the relative degree of T hybridoma stimulation, as reflected in the effect of released interleukins on the growth of an interleukin-dependent, indicator cell line, as described above.
(§2) The two above described assays measure different aspects of the molecular mechanism of the AE101 series of peptides. In the “simultaneous assay”, AE101 series peptides are thought to induce the release of endogenously bound peptides and to permit the binding of the second, specific antigenic peptide which is relatively abundant in the culture fluid. The AE101 series peptides enhance antigenic peptide-specific T cell responses in simultaneous assays. In the “peptide prepulse” assay, the specific antigenic peptide becomes bound to MHC class II molecules on the surface of the fixed APC during the 6 h prepulse incubation. The effect of the AE101 series homologs is then thought to release that antigenic peptide, resulting in an apparent suppression of the immune response.
(§3) The AE101 series peptides are thought to contact the MHC class II molecules at a discrete site outside the antigenic peptide-binding groove. AE101 peptide binding to this “Ii-KEY” site is thought to induce a conformational change in the MHC class II molecules accelerating the dissociation of previously bound antigenic peptide. […] The AE101 series peptides thus inhibit antigenic peptide-specific T cell responses in the “peptide prepulse” assays.
(§4) Antigenic peptide-specific T cell activation was measured by the following procedure. Mitomycin C-treated A20 cells (A^dE^d) or CH27 cells APC (A^kE^k) were generated by incubating 5×10^6 cells/mL for 20 min at 37° C. with 0.025 mg/mL of mitomycin C (Sigma) in Dulbecco's Modified Eaglel's Medium (DMEM)/10 mM N-2(hydroxyethylpiperazine-N″[2-ethanesulfonic acid] (HEPES), followed by two washes with four volumes of DMEM-5% fetal calf serum (FCS), 10 mM HEPES. Fixed APC were generated by treating 1×10^6 cells/mL for 5 min with 0.5% paraformaldehyde in PBS (pH 7.2), followed by two washes with four volumes of DMEM-10% FCS, 10 mM HEPES. T cell hybridomas were irradiated 2200 rads before each assay.
(§5) The “peptide prepulse assay” was carried out under essentially the same conditions as described for the “simultaneous assay” with the following modifications. Fixed APC were first incubated for 6 h at 1×10^6 cells/mL in complete DMEM-5% FCS in 24-well microculture plates (1 mL/well) with antigenic peptide, followed by four washes with 10 volumes of DMEM-5% FCS. The cells were then exposed to varying concentrations of AE101 series peptide (64 μM, 16 μM, 4 μM, and 1 μM) for 24 h in the presence of the T cell hybridoma specific to the antigenic peptide. Interleukin release from these cultures was measured by proliferation of HT-2 cells to interleukins in supernatants transferred from the primary culture. Generally, a single dose of 64 μM of each AE101 series peptide was used. The baseline T cell response was measured by culturing T hybridoma cells with the antigenic peptide-prepulsed APC in the absence of AE101 series peptides.
Table 19: Activities of C-terminal truncation analogs of AE101 in an antigenic peptide prepulse assay. […] Paraformaldehyde-treated APC (fixed APC) expressing MHC class II molecules were incubated with antigenic peptide for 6 h (HEL106-116 for E^d and PGCC81-104 for E^k). After this incubation, the prepulsed APC were washed and cultured with T hybridoma cells and AE101 series peptides. The antigenic peptide concentration during the prepulse was 12 μM for Ed and 20 μM for E^k. The AE101 series peptide concentrations were 64 μM for E^d and 16 μM for E^k. […]

[2] = molecular target: T1, murine E^d MHC class II allele (Mus musculus, UniProt P01904+P01915); experiment: antigenic peptide prepulse assay, E^d allele (fixed APC prepulsed with HEL106-116); type: cell-based; set-up: The A20 and CH27 B cell lymphoma lines express H-2^d and H-2^k alleles, respectively; endogenous in cells; host or cells: A20 B cell lymphoma (mitomycin C-treated or paraformaldehyde-fixed); conditions: AE peptide 64 μM; for Activity in antigenic peptide prepulse assay, E^d (baseline = 1.0): Table 26
T1 sequence (P01904 26-255): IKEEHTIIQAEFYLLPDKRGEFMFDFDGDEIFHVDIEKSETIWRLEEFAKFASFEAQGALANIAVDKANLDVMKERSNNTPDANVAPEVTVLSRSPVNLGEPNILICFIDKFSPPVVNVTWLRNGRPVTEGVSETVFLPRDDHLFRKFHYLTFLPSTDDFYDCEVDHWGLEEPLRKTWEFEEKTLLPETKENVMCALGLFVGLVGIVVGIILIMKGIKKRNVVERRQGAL
T1 sequence (P01915 27-264 limits assumed): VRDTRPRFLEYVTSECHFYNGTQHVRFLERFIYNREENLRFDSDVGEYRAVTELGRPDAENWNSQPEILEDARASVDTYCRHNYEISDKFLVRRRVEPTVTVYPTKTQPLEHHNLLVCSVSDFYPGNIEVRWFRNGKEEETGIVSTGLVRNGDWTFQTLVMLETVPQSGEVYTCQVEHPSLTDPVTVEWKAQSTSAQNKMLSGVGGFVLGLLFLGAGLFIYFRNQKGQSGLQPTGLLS
Description: as §1, §2, §3, §4, §5
[…] […] Paraformaldehyde-treated APC (fixed APC) expressing MHC class II molecules were incubated with antigenic peptide for 6 h (HEL106-116 for E^d and PGCC81-104 for E^k). After this incubation, the prepulsed APC were washed and cultured with T hybridoma cells and AE101 series peptides. […] The AE101 series peptide concentrations were 64 μM for E^d and 16 μM for E^k. The dilutions of supernatant taken into the HT-2 cell assay were 1:4 for Ed and 1:2 for E^k.

[3] = Table 22, AE peptide 16 μM, prepulse 20 μM antigenic peptide, supernatant 1:2
[4] = Table 22, prepulse 6 μM antigenic peptide, supernatant 1:8
[5] = Table 20, AE peptide 16 μM, prepulse 20 μM antigenic peptide, supernatant 1:2
[6] = Table 25, AE peptide 64 μM, prepulse 2.5 μM antigenic peptide, supernatant 1:10
[7] = Table 20, prepulse 3 μM antigenic peptide, supernatant 1:2
[8] = Table 25, prepulse 24 μM antigenic peptide, supernatant 1:4
[9] = AE peptide 64 μM, supernatant 1:8
[10] = prepulse 24 μM antigenic peptide, supernatant 1:2

Substance: Ac-l RMKLPK-NH2 [AE160]
- Activity in antigenic peptide prepulse assay, E^k (baseline = 1.00) [1, 3]: 0.47
- Activity in antigenic peptide prepulse assay, E^d (baseline = 1.00) [2, 4]: 0.40

Substance: Ac-Y[Cit]MKLPKSAK-NH2 [AE131]
- Activity in antigenic peptide prepulse assay, E^k (baseline = 1.00) [1, 5]: 0.71
- Activity in antigenic peptide prepulse assay, E^k (baseline = 1.00) [1, 6]: 0.98
- Activity in antigenic peptide prepulse assay, E^d (baseline = 1.00) [2, 7]: 0.69
- Activity in antigenic peptide prepulse assay, E^d (baseline = 1.00) [2, 8]: 0.61

Substance: Ac-ARNKNPF-NH2 [AE347]
- Activity in antigenic peptide prepulse assay, E^k (baseline = 1.00) [1, 6]: 1.10
- Activity in antigenic peptide prepulse assay, E^d (baseline = 1.00) [2, 8]: 0.64

Substance: Ac-LRMKLP[Cit]-NH2 [AE241]
- Activity in antigenic peptide prepulse assay, E^k (baseline = 1.0) [1, 9]: 0.99
- Activity in antigenic peptide prepulse assay, E^d (baseline = 1.0) [2, 10]: 0.70

Substance: Ac-ARNKNPK-NH2 [AE346]
- Activity in antigenic peptide prepulse assay, E^k (baseline = 1.00) [1, 6]: 0.77
- Activity in antigenic peptide prepulse assay, E^d (baseline = 1.00) [2, 8]: 0.65

Substance: Ac-LR L KLPK-NH2 (Ac-LRLKLPK-NH2; not fully specified; printed as Ac-LR L KLPK-NH2) [AE206]
- Activity in antigenic peptide prepulse assay, E^k (baseline = 1.00) ([1]; Table 24, AE peptide 64 μM, prepulse 0.625 μM antigenic peptide, supernatant 1:8): 1.00
- Activity in antigenic peptide prepulse assay, E^k (baseline = 1.00) [1, 6]: 0.68
- Activity in antigenic peptide prepulse assay, E^k (baseline = 1.0) [1, 9]: 0.96
- Activity in antigenic peptide prepulse assay, E^d (baseline = 1.00) ([2]; Table 24, prepulse 24 μM antigenic peptide, supernatant 1:4): 0.52
- Activity in antigenic peptide prepulse assay, E^d (baseline = 1.00) [2, 8]: 0.18
- Activity in antigenic peptide prepulse assay, E^d (baseline = 1.0) [2, 10]: 0.38

Substance: Ac-YRMK-NH2 [AE117]
- Activity in antigenic peptide prepulse assay, E^k (baseline without AE peptide = 1.00) ([1]; Table 19, AE peptide 16 μM, prepulse 20 μM PGCC81-104, supernatant 1:2): 0.09
- Activity in antigenic peptide prepulse assay, E^d (baseline without AE peptide = 1.00) ([2]; Table 19, prepulse 12 μM HEL106-116, supernatant 1:4): 0.65

Substance: Ac-LRMK HArg PK-NH2 (Ac-LRMK[hArg]PK-NH2; SMILES CSCC[C@H](NC(=O)[C@H](CCCNC(=N)N)NC(=O)[C@H](CC(C)C)NC(C)=O)C(=O)N[C@@H](CCCCN)C(=O)N[C@@H](CCCCNC(=N)N)C(=O)N1CCC[C@H]1C(=O)N[C@@H](CCCCN)C(N)=O) [AE227]
- Activity in antigenic peptide prepulse assay, E^k (baseline = 1.00) [1, 6]: 0.87
- Activity in antigenic peptide prepulse assay, E^d (baseline = 1.00) [2, 8]: 0.28

Substance: Ac-Y L MKLPKSAK-NH2 [AE142]
- Activity in antigenic peptide prepulse assay, E^k (baseline = 1.00) [1, 5]: 0.46
- Activity in antigenic peptide prepulse assay, E^d (baseline = 1.00) [2, 7]: 0.86

Substance: Ac-LR m KLPK-NH2 [AE162]
- Activity in antigenic peptide prepulse assay, E^k (baseline = 1.00) [1, 3]: 0.61
- Activity in antigenic peptide prepulse assay, E^d (baseline = 1.00) [2, 4]: 0.28

Substance: Ac-ARMKLPKSAK-NH2 [AE120]
- Activity in antigenic peptide prepulse assay, E^k (baseline = 1.00) [1, 6]: 0.62
- Activity in antigenic peptide prepulse assay, E^d (baseline = 1.00) [2, 8]: 0.63

Substance: Ac-Y Y MKLPKSAK-NH2 [AE140]
- Activity in antigenic peptide prepulse assay, E^k (baseline = 1.00) [1, 5]: 0.79
- Activity in antigenic peptide prepulse assay, E^d (baseline = 1.00) [2, 7]: 0.78
